Results from patent publication US20240376097A1, “BCL-2 Inhibitor” (BeiGene Ltd., priority 2020, published 2024).
pIC50: −log10 of the molar value. Like-named read-outs stand apart in the source and are kept apart here.

Experiments:
[1] = target: Recombinant human Bcl-2 protein (Homo sapiens (Human), UniProt P10415); assay: Bcl-2 TR-FRET Assay; format: binding
Method in brief: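 0.05 nM Bcl-2 pre-incubated 0.5 h at room temperature with 10-point compound dilutions (top final 1, 0.1, 0.02 or 0.01 uM) in 20 mM potassium phosphate pH 7.5, 50 mM NaCl, 1 mM EDTA, 0.05% Tween-20, 0.01% BSA; FITC-Bak peptide (0.5 nM) and anti-6His Tb cryptate added, 1 h. IC50 from four-parameter logistic fit.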

[2] = target: recombinant human Bcl-2-G101V protein (Homo sapiens (Human), UniProt P10415, G101V); assay: Bcl-2-G101V TR-FRET Assay; format: binding; settings: Bcl-2 G101V mutant, TR-FRET; read-out: Biochemical assay (IC50, nM) Bcl-2 G101V
Method in brief: (§1)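 IC50 values derive from four-parameter logistic fitting of percent inhibition data. That inhibition of ligand binding to Bcl-2-G101V is computed from the 490 nm/520 nm TR-FRET ratio under 337 nm excitation, over a rising compound concentration series.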

[3] = test system: recombinant human Bcl-2-G101V protein; assay: Bcl-2-G101V TR-FRET Assay; format: binding; settings: for Ratio of Bcl-2 G101V/WT: ratio of biochemical IC50 Bcl-2 G101V / Bcl-2 WT
Method in brief: as §1

[4] = test system: RS4;11 (BCL-2 dependent acute lymphoblastic leukemia cell line); assay: RS4;11 Cell Proliferation Assay; format: cell-based; settings: Homo sapiens, RS4-11, RS4;11 cells, read-out: Cellular proliferation assay (IC50, nM) RS4
Method in brief: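 RS4;11 cells, 50,000 per well in RPMI-1640 with 10% FBS, treated 48 h at 37 °C with a 10-point dilution series topping at 1 μM. Viability read by CellTiter-Glo ATP luminescence; mean IC50 reported.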

[5] = test system: BCL-2 G101V knock-in cell line H96 (derive from RS4;11); assay: Bcl 2-G101V Knock-In RS4;11 Cell Proliferation Assay; format: cell-based; settings: Homo sapiens, RS4;11 Bcl-2 G101V knock-in clone H96, 48 hrs, CellTiter-GLO, read-out: Cellular proliferation assay (IC50, nM) RS4
Method in brief: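 H96, a CRISPR-generated RS4;11 clone carrying BCL2-G101V knock-in (WES/RNA-seq validated), seeded 50,000 per well and exposed 48 h at 37 °C to 10-point dilutions topping at 1 or 10 μM. Viability by CellTiter-Glo luminescence; mean IC50.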

[6] = target: recombinant human Bcl-2 D103Y protein (Homo sapiens (Human), UniProt P10415, D103Y); assay: Bcl-2-D103Y Biochemical Assay (TR-FRET); format: binding; settings: for pIC50: TR-FRET, FITC labeled Bak peptide; for Ratio of Bcl-2 D103Y/Bcl-2 WT: ratio of IC50
Method in brief: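 Recombinant human Bcl-2 D103Y binding to its ligand measured by TR-FRET (ex 337 nm, em 490/520 nm) with increasing compound concentrations. Percent inhibition from the 490/520 nm ratio; IC50 from four-parameter logistic fit.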

[7] = Bcl-2 wild type, TR-FRET, read-out: Biochemical assay (IC50, nM) Bcl-2 WT
[8] = wild type Bcl-2, unit inferred, read-out: Bcl-2 WT

`COc1ccc(CN2CCN(C3CC4(CCN(c5ccc(C(=O)NS(=O)(=O)c6ccc(NC[C@H]7CC[C@](C)(O)CC7)c([N+](=O)[O-])c6)c(Oc6cnc7[nH]ccc7c6)c5)CC4)C3)[C@@H](c3ccccc3C(C)C)C2)cc1` [Example 19b, 2-((1H-pyrrolo[2,3-b]pyridin-5-yl)oxy)-N-((4-((((1r,4r)-4-hydroxy-4-methylcyclohexyl)methyl)amino)-3-nitrophenyl)sulfonyl)-4-(2-((S)-2-(2-isopropylphenyl)-4-(4-methoxybenzyl)piperazin-1-yl)-7-azaspiro[3.5]nonan-7-yl)benzamide] was tested, and the IC50 [1, 7] was 0.16 nM, the IC50 [1, 8] was 0.16 nM and the IC50 [2] was 10 nM. The “Ratio of Bcl-2 G101V/WT” value [3] was 62.5, the IC50 [4] was 6.8 nM and the IC50 [5] was 44 nM. For the same molecule, the pIC50 [6] was 7.80 and the “Ratio of Bcl-2 D103Y/Bcl-2 WT” value [6] was 100.
`CC(C)c1ccccc1C1CN(Cc2ccoc2)CCN1C1CC2(CCN(c3ccc(C(=O)NS(=O)(=O)c4ccc(NC[C@H]5CC[C@](C)(O)CC5)c([N+](=O)[O-])c4)c(Oc4cnc5[nH]ccc5c4)c3)CC2)C1` (stereo partly drawn) [Example 20, 2-((1H-pyrrolo[2,3-b]pyridin-5-yl)oxy)-4-(2-(4-(furan-3-ylmethyl)-2-(2-isopropylphenyl)piperazin-1-yl)-7-azaspiro[3.5]nonan-7-yl)-N-((4-((((1r,4r)-4-hydroxy-4-methylcyclohexyl)methyl)amino)-3-nitrophenyl)sulfonyl)benzamide] was tested, and the IC50 [1, 7] was 0.053 nM, the IC50 [1, 8] was 0.053 nM and the IC50 [2] was 0.58 nM. The “Ratio of Bcl-2 G101V/WT” value [3] was 10.9, the IC50 [4] was 0.62 nM and the IC50 [5] was 5.91 nM. The pIC50 [6] was 9.60 and the “Ratio of Bcl-2 D103Y/Bcl-2 WT” value [6] was 4.6.
With `CC(C)c1ccccc1C1CN(Cc2cnn(C)c2)CCN1C1CC2(CCN(c3ccc(C(=O)NS(=O)(=O)c4ccc(NC[C@H]5CC[C@](C)(O)CC5)c([N+](=O)[O-])c4)c(Oc4cnc5[nH]ccc5c4)c3)CC2)C1` (stereo partly drawn) [Example 22, 2-((1H-pyrrolo[2,3-b]pyridin-5-yl)oxy)-N-((4-((((1r,4r)-4-hydroxy-4-methylcyclohexyl)methyl)amino)-3-nitrophenyl)sulfonyl)-4-(2-(2-(2-isopropylphenyl)4-((1-methyl-1H-pyrazol-4-yl)methyl)piperazin-1-yl)-7-azaspiro[3.5]nonan-7-yl) benzamide] the IC50 [1, 7] was 0.013 nM, the IC50 [1, 8] was 0.013 nM and the IC50 [2] was 0.079 nM. For the same molecule, the “Ratio of Bcl-2 G101V/WT” value [3] was 6.1, the IC50 [4] was 0.46 nM and the IC50 [5] was 2.6 nM. The pIC50 [6] was 9.92 and the “Ratio of Bcl-2 D103Y/Bcl-2 WT” value [6] was 9.2.
In the case of `CC(C)c1ccccc1C1CN(Cc2ccccc2)CCN1C1CC2(CCN(c3ccc(C(=O)NS(=O)(=O)c4ccc(NC[C@H]5CC[C@](C)(O)CC5)c([N+](=O)[O-])c4)c(Oc4cnc5[nH]ccc5c4)c3)CC2)C1` (stereo partly drawn) [Example 23, 2-((1H-pyrrolo[2,3-b]pyridin-5-yl)oxy)-4-(2-(4-benzyl-2-(2-isopropylphenyl)piperazin-1-yl)-7-azaspiro[3.5]nonan-7-yl)-N-((4-((((1r,4r)-4-hydroxy-4-methylcyclohexyl)methyl)amino)-3-nitrophenyl)sulfonyl)benzamide], the IC50 [1, 7] was 0.45 nM, the IC50 [1, 8] was 0.13 nM and the IC50 [2] was 2.1 nM. The “ratio of IC50 of Bcl-2 G101V/Bcl-2 wt, compared with Example F132b in WO2019210828 and ABT-199 (venetoclax)” value ([3]; comparison in words) was “much lower”, the “Ratio of Bcl-2 G101V/WT” value [3] was 4.7 and the IC50 [4] was 0.39 nM. For the same molecule, the IC50 [5] was 2.66 nM, the pIC50 [6] was 9.59 and the “ratio of Bcl-2 D103Y/Bcl-2 wt, compared with F91b in WO2019210828” value ([6]; comparison in words) was “significantly lower”. For the same molecule, the “Ratio of Bcl-2 D103Y/Bcl-2 WT” value [6] was 2.
Molecule `CC(C)c1ccccc1C1CN(CCc2ccccc2)CCN1C1CC2(CCN(c3ccc(C(=O)NS(=O)(=O)c4ccc(NC[C@H]5CC[C@](C)(O)CC5)c([N+](=O)[O-])c4)c(Oc4cnc5[nH]ccc5c4)c3)CC2)C1` (stereo partly drawn) [Example 26, 2-((1H-pyrrolo[2,3-b]pyridin-5-yl)oxy)-N-((4-((((1r,4r)-4-hydroxy-4-methylcyclohexyl)methyl)amino)-3-nitrophenyl)sulfonyl)-4-(2-(2-(2-isopropylphenyl)-4-phenethylpiperazin-1-yl)-7-azaspiro[3.5]nonan-7-yl)benzamide] has an IC50 [1, 7] of 0.11 nM, an IC50 [1, 8] of 0.11 nM and an IC50 [2] of 1.4 nM. For the same molecule, the “Ratio of Bcl-2 G101V/WT” value [3] was 12.7, the IC50 [4] was 0.85 nM and the IC50 [5] was 8.48 nM. The pIC50 [6] was 9.29 and the “Ratio of Bcl-2 D103Y/Bcl-2 WT” value [6] was 4.7.
